Results filed as inconclusive are left out. Activity calls are given as the source filed them. The rule behind the calls is not given here.
Target: S. cerevisiae eIF2B mutant, luciferase reporter luminescence
Experiment: eIF2B reporter inhibitors in yeast strains, dose response, S. cerevisiae, mutant, wild-type, luminescence, growth (AID 792)
[1] = measured here: mutant yeast growth

Structure (SMILES) | IC50 | IC50 [1] [µM]
COC(=O)c1cccc(NC(=O)c2ccc(S(=O)(=O)N3CCN(C)CC3)cc2)c1 | > 100 µM (inactive) | > 100
O=C(NC(Cc1ccccc1)C(=O)OCC(=O)N1CCc2ccccc21)c1ccco1 (stereo unspecified) | > 100 µM (inactive) | > 100
CCOc1ccc(S(=O)(=O)N2CCC(C(N)=O)CC2)c2ccccc12 | > 100 µM (inactive) | > 100
